Four compounds from publication PMC7456513 (ACS infectious diseases, 2020) can be followed below.

Holding throughout (experiment): tryptophan fluorescence quenching titration
What all share (assay type): binding

The target of experiment [1] is T1, HasAp (Pseudomonas aeruginosa, UniProt G3XD33).
Experiment [2] has as its target T1, HasAp. Conditions: read-out: KD (nM, ± SD).
Experiment [3] has as its target T1, HasAp. As to conditions: read-out: KD (nM, ± SD). The source holds these as a separate data set.

By Kd is commonly meant the concentration at which binding is half-saturated.

Like-named read-outs stand apart in the source and are kept apart here.

`C=CC1=C(C)C2=Cc3c(C=C)c(C)c4[n]3[Fe][n]3c(c(C)c(CCC(=O)O)c3=CC3=NC(=C4)C(C)=C3CCC(=O)O)=CC1=N2` [heme] registered a Kd at HasAp [1] of 350 ± 50 nM.
For `C1=[N+]2c3ccccc3[N+]3=Cc4ccccc4[O][Fe-]23[O]c2ccccc21` [FeSal], the Kd at HasAp [2] stood at 1050 ± 100 nM.
For `C=CC1=C(C)C2=[N+]3C1=Cc1c(C)c(C=C)c4[n]1[Ga-]31[n]3c(c(C)c(CCC(=O)O)c3=CC3=[N+]1C(=C4)C(C)=C3CCC(=O)O)=C2` (stereo not shown) [GaPPIX], the Kd on HasAp [2] is 280 ± 30 nM.
Consider `C1=[N+]2c3ccccc3[N+]3=Cc4ccccc4[O][Ga-]23[O]c2ccccc21` [GaSal], for which the Kd on HasAp [3] was found to be 2050 ± 280 nM.
